The record followed here is ChEMBL document CHEMBL4184333, “Expanding Benzoxazole-Based Inosine 5'-Monophosphate Dehydrogenase (IMPDH) Inhibitor Structure-Activity As Potential Antituberculosis Agents” (J Med Chem, 2018).

Each structure is given as a SMILES string. Values after ≈ are worked out from the molar mass of the structure shown. Active and inactive are the calls of the source. Some results are limits rather than exact numbers.

Data set [1] relates to Mycobacterium tuberculosis. The data set is described as follows: Antitubercular activity against Mycobacterium tuberculosis H37Rv ATCC 27294 using 7H9/ADC/Tween medium after 1 week in absence of guanine by broth microdilution method. The note with it: H37Rv ATCC 27294, 168 h. The class given is functional. Background: Broth dilution looks for growth in wells or tubes with falling amounts of substance.

Data set [2] deals with Inosine-5'-monophosphate dehydrogenase 2 (Homo sapiens, UniProt P12268). Description: Inhibition of human IMPDH2 using IMP as substrate by spectrophotometric method. The note with it: read-out: Ki(app).
In data set [3] the test system is Mycobacterium tuberculosis. The data set is described as follows: Antitubercular activity against Mycobacterium tuberculosis H37Rv ATCC 27294 using GAST/Fe medium after 1 week in presence of guanine by broth microdilution method. The class given is functional. The settings on record: H37Rv ATCC 27294, 168 h.
A further data set concerns HeLa. The data set is described as follows: Cytotoxicity against human HeLa cells assessed as LDH release at 25 uM after 24 hrs relative to control. The format is cell-based.
Another data set addresses T1, GMP reductase 2 (Homo sapiens, UniProt Q9P2T1).
T1 sequence (Q9P2T1 whole entry): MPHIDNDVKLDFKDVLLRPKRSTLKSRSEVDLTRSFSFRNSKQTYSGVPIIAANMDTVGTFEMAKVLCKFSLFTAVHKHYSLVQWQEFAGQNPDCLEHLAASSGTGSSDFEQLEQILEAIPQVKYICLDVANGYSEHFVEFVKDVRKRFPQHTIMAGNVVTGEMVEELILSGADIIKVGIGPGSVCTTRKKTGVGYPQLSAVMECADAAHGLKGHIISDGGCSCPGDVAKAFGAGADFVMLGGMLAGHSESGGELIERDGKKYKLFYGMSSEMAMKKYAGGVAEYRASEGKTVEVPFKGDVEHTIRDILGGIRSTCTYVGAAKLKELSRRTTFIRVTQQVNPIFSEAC
Description: Inhibition of human GMPR2 using GMP as substrate by spectrophotometric method. The note with it: read-out: Ki(app).

A short description of data set [4]: Cytotoxicity against human HepG2 cells after 24 hrs by LDH release assay. The class given is cell-based. The settings on record: HepG2 cells, read-out: LD50.
The test system of data set [5] is Mycobacterium tuberculosis. Description: Antitubercular activity against Mycobacterium tuberculosis H37Rv ATCC 27294 using GAST/Fe medium after 2 weeks in absence of guanine by broth microdilution method. The format is functional, organism-based.
The next data set has as its system MCF7. The data set is described as follows: Cytotoxicity against human MCF7 cells assessed as LDH release at 25 uM after 24 hrs relative to control. The class given is cell-based. The note with it: mcf7, 24 h.
Data set [6] can be described thus: Tmax in mouse at 20 mg/kg, po. The format is ADME, organism-based. The note with it: in vivo.
In a further data set the test system is HepG2. The data set is described as follows: Cytotoxicity against human HepG2 cells assessed as LDH release at 25 uM after 24 hrs relative to control. The class given is cell-based. The note with it: hepg2, 24 h. In general terms: LDH in the medium is a marker of cell lysis.
The test system of data set [7] is Mycobacterium tuberculosis. The data set is described as follows: Antitubercular activity against Mycobacterium tuberculosis H37Rv ATCC 27294 using 7H9/ADC/Tween medium after 1 week in absence of guanine and presence of anhydrotetracycline by Alamar blue assay. The class given is functional. The settings on record: H37Rv ATCC 27294, 168 h. (In general: Resazurin is reduced to fluorescent resorufin, in cell work by metabolically active cells.)

In the next data set the test system is HEK-293T. The data set is described as follows: Cytotoxicity against human HEK293T cells assessed as LDH release at 25 uM after 24 hrs relative to control. The class given is cell-based.
Data set [8] can be described thus: Elimination half life in mouse plasma at 20 mg/kg, po. The format is ADME, organism-based. The note with it: read-out: beta t1/2 (converted).
The test system of data set [9] is Mycobacterium tuberculosis. The data set is described as follows: Antitubercular activity against Mycobacterium tuberculosis H37Rv ATCC 27294 using 7H9/ADC/Tween medium after 2 weeks in absence of guanine by broth microdilution method. The format is functional, organism-based.
The nature of data set [10]: Cmax in mouse at 20 mg/kg, po. The class given is ADME, organism-based. Also noted: dose 20 mg/kg, route oral. The note with it: in vivo.
Data set [11] concerns Mycobacterium tuberculosis. The data set is described as follows: Antitubercular activity against Mycobacterium tuberculosis H37Rv ATCC 27294 using 7H9/ADC/Tween medium after 1 week in presence of guanine by broth microdilution method. The format is functional. The settings on record: H37Rv ATCC 27294, 168 h.
Data set [12] relates to Mycobacterium tuberculosis. The data set is described as follows: Antitubercular activity against Mycobacterium tuberculosis H37Rv ATCC 27294 using GAST/Fe medium after 1 week in absence of guanine by broth microdilution method. The class given is functional. The settings on record: H37Rv ATCC 27294, 168 h.
Data set [13] in a line: Protein binding in mouse serum at 20 mg/kg, po. The format is ADME, organism-based. The note with it: read-out: PB.
The nature of data set [14]: Drug metabolism in mouse plasma after 2 hrs. The format is ADME, cell-free.
Data set [15] can be described thus: Half life in mouse liver microsomes in presence of NADPH. The class given is ADME, microsome.

For orientation: MIC means the smallest concentration in the dilution series that meets the test's criterion for growth inhibition. Broadly, the Tmax is the time at which the peak concentration occurs. What is called Cmax is the highest concentration seen after dosing. As to `C[C@H](Nc1cccc(F)c1F)C(=O)Nc1ccc2oc(-c3ccc(C#N)cc3)nc2c1`, the MIC was 1 to 3.1 µM (≈ 0.418 to 1.3 µg/mL) in [1]; 6 µM in [3]; 3.1 µM in data set [7]; 1.4 µM in [11]; 2 µM (≈ 0.837 µg/mL) in data set [12]. The Ki (in data set [2]; on GMP reductase 2) was above 5 µM throughout. In addition, the Activity in the data set with HeLa is below 10%; in the data set on MCF7, below 10%; in the data set with HepG2 it was 9 to 13%; in the data set on HEK-293T it was below 10%. Besides, in data set [4], the CC50 at 24 h was above 25 µM. Besides, the result in [5] and in data set [9] was Active. Moreover, in data set [6], the time of peak concentration (Tmax) amounted to 30 min. Also, in data set [8], the half-life is 300 min. The molecule further had a Cmax in data set [10] of 3000 nM. The fraction unbound in [13] is below 0.01. Further, the Drug metabolism result in data set [14] was “Metabolite_Notdetected”. In [15], the t1/2 worked out at 26 min.
